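Following 48 hours of exposure in 96-well plates, responses at five concentrations were used to interpolate endpoints linearly. Abbreviation: GI50, concentration required for 50% inhibition of growth.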 Activity calls are given as the source filed them. No stated cut-off is given here; in the data, active = GI50 up to about 1.1 µM and inactive = higher.
What was measured:
Assay in all cases: NCI anticancer screen, dose series, 48 h
BT-549 = tested on: BT-549
CAKI-1 = tested on: CAKI-1
HCT-116 = tested on: HCT-116
HCT-15 = tested on: HCT-15
HOP-92 = tested on: HOP-92
HT-29 = tested on: HT-29
KM12 = tested on: KM12
NCI-H460 = tested on: NCI-H460
NCI-H522 = tested on: NCI-H522
OVCAR-3 = tested on: OVCAR-3
PC-3 = tested on: PC-3
RPMI-8226 = tested on: RPMI-8226
SK-MEL-2 = tested on: SK-MEL-2
T47D = tested on: T47D
TK-10 = tested on: TK-10
UACC-62 = tested on: UACC-62
HOP-62 = tested on: HOP-62
MCF7 = tested on: MCF7
SF-539 = tested on: SF-539

Measured: GI50

CCOc1cc(C=O)c2c(ccc3ccc(OC)c(OC)c32)c1OC
inactive: BT-549 32.4 µM | CAKI-1 93.5 µM | HCT-116 36 µM | HOP-92 > 100 µM | HT-29 37.5 µM | KM12 27.2 µM | NCI-H460 20 µM | NCI-H522 38.5 µM | OVCAR-3 31.6 µM | PC-3 17.7 µM | RPMI-8226 15.5 µM | SK-MEL-2 36.8 µM | T47D 35.7 µM | TK-10 > 100 µM | UACC-62 67.8 µM
49.7 µM: HCT-15

CCC(=O)/C(=C\I)c1ccccc1
inactive: BT-549 1.79 µM | HCT-116 1.79 µM | HOP-62 21 µM | HOP-92 2.16 µM | KM12 6.56 µM | MCF7 1.67 µM | NCI-H460 9.86 µM | OVCAR-3 1.67 µM | PC-3 3.01 µM | RPMI-8226 3.33 µM | SF-539 18.1 µM | SK-MEL-2 2.1 µM | T47D 1.68 µM | TK-10 15 µM | UACC-62 2.49 µM
1.8 µM: HCT-15
active: HT-29 0.931 µM

CCOc1ccc(N/C(=C(/C(Cl)=C(/Cl)NC(C)(C)C)[N+](=O)[O-])n2nnc3ccccc32)cc1
inactive: BT-549 17.9 µM | CAKI-1 19.3 µM | HCT-116 18.6 µM | HOP-62 70 µM | HT-29 35.1 µM | KM12 21.1 µM | MCF7 26.1 µM | NCI-H460 76.9 µM | OVCAR-3 25.9 µM | PC-3 28.7 µM | RPMI-8226 23.9 µM | SF-539 24.1 µM | SK-MEL-2 31.6 µM | T47D 15.5 µM | UACC-62 22.8 µM
20.4 µM: HCT-15

COC12C=CC(CC1)C1C(=O)c3c(C)c(C)n(C)c3C(=O)C12 (configuration not stated)
inactive: BT-549 > 100 µM | HCT-116 89.5 µM | HOP-62 > 100 µM | HT-29 > 100 µM | KM12 91.4 µM | MCF7 > 100 µM | NCI-H460 > 100 µM | OVCAR-3 > 100 µM | PC-3 > 100 µM | RPMI-8226 85.1 µM | SF-539 > 100 µM | SK-MEL-2 > 100 µM | T47D > 100 µM | TK-10 > 100 µM | UACC-62 40.9 µM
15.4 µM: HCT-15

CC1=C(C(=O)OC23CC4CC(CC(C4)C2)C3)C(c2ccccc2OC(F)F)C(C(=O)OC23CC4CC(CC(C4)C2)C3)=C(C)N1 (configuration not stated)
> 100 µM: HCT-15
inactive: BT-549 > 100 µM | CAKI-1 > 100 µM | HCT-116 > 100 µM | HOP-62 > 100 µM | HOP-92 > 100 µM | HT-29 > 100 µM | KM12 > 100 µM | MCF7 74.6 µM | NCI-H460 > 100 µM | NCI-H522 75.2 µM | OVCAR-3 50.5 µM | RPMI-8226 > 100 µM | SF-539 > 100 µM | SK-MEL-2 > 100 µM | T47D > 100 µM | UACC-62 > 100 µM

CC(C)=CCC[C@@H](C)C1=C(Nc2ccccc2)C(=O)C(C)=C(O)C1=O
0.875 µM: HCT-15
inactive: BT-549 3.67 µM | CAKI-1 2.82 µM | HCT-116 1.53 µM | HOP-62 1.81 µM | HOP-92 2.87 µM | HT-29 4.16 µM | KM12 3.42 µM | MCF7 4.29 µM | NCI-H460 1.63 µM | NCI-H522 3.03 µM | OVCAR-3 2.21 µM | PC-3 3.63 µM | RPMI-8226 9.66 µM | SK-MEL-2 2.52 µM | T47D 6.7 µM | TK-10 4.29 µM | UACC-62 4.03 µM

Oc1cccc(-c2cn3cc(Cl)ccc3n2)c1
inactive: BT-549 51.1 µM | CAKI-1 70 µM | HCT-116 57.9 µM | HOP-62 > 100 µM | HOP-92 91.8 µM | HT-29 43.4 µM | KM12 37.2 µM | MCF7 17.3 µM | NCI-H460 34 µM | NCI-H522 15.9 µM | OVCAR-3 31.7 µM | PC-3 29.2 µM | SK-MEL-2 38.8 µM | T47D 12.7 µM | TK-10 35.4 µM | UACC-62 35.1 µM
30.7 µM: HCT-15

Nc1cc2nc(-c3ccccc3)cn2cn1
inactive: BT-549 > 100 µM | CAKI-1 89.9 µM | HCT-116 > 100 µM | HOP-62 > 100 µM | HT-29 47.2 µM | KM12 66.2 µM | MCF7 70.1 µM | NCI-H460 99.1 µM | OVCAR-3 > 100 µM | PC-3 50 µM | RPMI-8226 65 µM | SF-539 > 100 µM | SK-MEL-2 > 100 µM | T47D > 100 µM | TK-10 50.5 µM | UACC-62 54.6 µM
> 100 µM: HCT-15

C=CCN1C(=O)CC2[C@@H]3CCc4cc(O)ccc4C3CC[C@]2(C)C1=O (some centres not stated)
inactive: BT-549 > 10 µM | CAKI-1 > 10 µM | HCT-116 > 10 µM | HOP-62 > 10 µM | HOP-92 > 10 µM | HT-29 > 10 µM | KM12 > 10 µM | MCF7 > 10 µM | NCI-H460 > 10 µM | OVCAR-3 > 10 µM | PC-3 > 10 µM | RPMI-8226 > 10 µM | SF-539 > 10 µM | SK-MEL-2 > 10 µM | T47D > 10 µM | TK-10 > 10 µM | UACC-62 > 10 µM
> 10 µM: HCT-15

COc1cc(-c2nc(SC)nc3c2CCc2ccccc2-3)cc(OC)c1OC
inactive: BT-549 > 100 µM | HCT-116 47.8 µM | HOP-62 > 100 µM | HOP-92 > 100 µM | HT-29 50.1 µM | KM12 65.9 µM | MCF7 50.1 µM | OVCAR-3 95.1 µM | PC-3 34.5 µM | RPMI-8226 25.8 µM | SF-539 83.4 µM | SK-MEL-2 > 100 µM | T47D 26.8 µM | UACC-62 82.4 µM

CC(=O)Nc1ncc(Sc2ccccc2C(=O)O)s1
inactive: BT-549 > 100 µM | CAKI-1 > 100 µM | HCT-116 > 100 µM | HOP-62 > 100 µM | HOP-92 > 100 µM | HT-29 > 100 µM | KM12 > 100 µM | MCF7 > 100 µM | NCI-H460 > 100 µM | OVCAR-3 > 100 µM | PC-3 > 100 µM | RPMI-8226 > 100 µM | SF-539 > 100 µM | SK-MEL-2 > 100 µM | T47D > 100 µM | TK-10 > 100 µM | UACC-62 > 100 µM
> 100 µM: HCT-15

NNC1=NC(=O)NC(=O)C1
> 100 µM: HCT-15
inactive: BT-549 > 100 µM | CAKI-1 > 100 µM | HCT-116 > 100 µM | HOP-62 > 100 µM | HOP-92 66.4 µM | HT-29 > 100 µM | KM12 > 100 µM | MCF7 > 100 µM | NCI-H460 > 100 µM | NCI-H522 > 100 µM | OVCAR-3 > 100 µM | PC-3 > 100 µM | RPMI-8226 > 100 µM | SK-MEL-2 > 100 µM | T47D > 100 µM | TK-10 > 100 µM | UACC-62 > 100 µM

N#Cc1c(-c2ccccc2)cc(-c2ccc(Cl)cc2)[nH]c1=S
inactive: BT-549 41.5 µM | CAKI-1 51.4 µM | HCT-116 33.1 µM | HOP-62 50.1 µM | HOP-92 65.9 µM | HT-29 37 µM | KM12 58.5 µM | MCF7 23.4 µM | NCI-H460 32.5 µM | NCI-H522 27.4 µM | OVCAR-3 38.8 µM | PC-3 27.1 µM | RPMI-8226 29.2 µM | T47D 18.7 µM | TK-10 45.9 µM | UACC-62 27.9 µM
25.8 µM: HCT-15

COC(=O)C1(C(=O)OC)N=C(C)OC1c1ccoc1 (configuration not stated)
> 100 µM: HCT-15
inactive: BT-549 > 100 µM | CAKI-1 > 100 µM | HCT-116 > 100 µM | HOP-62 > 100 µM | HOP-92 > 100 µM | KM12 > 100 µM | MCF7 > 100 µM | NCI-H460 > 100 µM | OVCAR-3 > 100 µM | PC-3 > 100 µM | RPMI-8226 > 100 µM | SK-MEL-2 > 100 µM | T47D > 100 µM | TK-10 > 100 µM | UACC-62 > 100 µM

CSC(=S)N(C)C [CYSTOGON]
> 100 µM: HCT-15
inactive: BT-549 > 100 µM | CAKI-1 > 100 µM | HCT-116 > 100 µM | HOP-62 > 100 µM | HOP-92 > 100 µM | HT-29 > 100 µM | KM12 > 100 µM | MCF7 > 100 µM | NCI-H460 > 100 µM | NCI-H522 > 100 µM | OVCAR-3 > 100 µM | RPMI-8226 > 100 µM | SF-539 > 100 µM | SK-MEL-2 > 100 µM | T47D > 100 µM | TK-10 > 100 µM | UACC-62 > 100 µM

CCOC(=O)c1c(NS(=O)(=O)c2ccc(C)cc2)sc2c1CCCC2
15.9 µM: HCT-15
inactive: BT-549 31.7 µM | CAKI-1 38.9 µM | HCT-116 21.4 µM | HOP-62 23.2 µM | HT-29 24.2 µM | KM12 19 µM | MCF7 24.4 µM | NCI-H460 24.3 µM | OVCAR-3 15 µM | PC-3 16.2 µM | RPMI-8226 10.2 µM | SF-539 29.9 µM | SK-MEL-2 17.3 µM | T47D 43.3 µM | TK-10 28.4 µM | UACC-62 17.5 µM

C=C(C)[C@@]12C[C@H](OC(=O)[C@H](O)[C@@H](NC(=O)c3ccccc3)c3ccccc3)C(C)=C1[C@@H](OC(C)=O)C(=O)[C@@]1(C)C([C@@H]2OC(=O)c2cc(F)cc(F)c2)C2(OC(C)=O)CO[C@@H]2C[C@@H]1O (some centres not stated)
active: BT-549 0.194 µM | CAKI-1 0.525 µM | HCT-116 0.0201 µM | HOP-62 0.123 µM | HT-29 0.0278 µM | MCF7 0.029 µM | NCI-H460 0.0348 µM | OVCAR-3 0.122 µM | PC-3 0.0826 µM | RPMI-8226 0.0236 µM | SF-539 0.0282 µM | SK-MEL-2 0.144 µM | T47D 0.117 µM | TK-10 0.3 µM | UACC-62 0.076 µM
inactive: HOP-92 2.4 µM
0.292 µM: HCT-15

Source: ChEMBL document CHEMBL1201862, “PubChem BioAssay data set” (2004)
